Laboratory results reported in patent US5567692A, “9-[(substituted glycyl) amido)]-6-demethyl-6-deoxytetracyclines” (priority 1995, dated 1996).
Values after ≈ are worked out from the molar mass of the structure shown. Structures can show the parent of a compound that is named as a salt. Where two headings read alike, the source gives them in different places.

Columns and labels:
E. coli J3272 Tet C = assay: microbe, parasite or virus in culture; assay type: cell-based; settings: Escherichia coli, J3272TETC, 18 h
E. coli PRP1 Tet A = assay: microbe, parasite or virus in culture; assay type: cell-based; settings: Escherichia coli, PRP1TETA, 18 h
[1] = test system: S. aureus UBMS 88-7 Tet K; assay: microbe, parasite or virus in culture; assay type: cell-based; settings: Staphylococcus aureus, UBMS887TETK, 18 h
S. aureus NEMC 8769 = assay: MIC, agar dilution; assay type: cell-based; settings: Staphylococcus aureus, NEMC8769, 18 h
[2] = test system: S. hemolyticus AVHAH 88-3; assay: MIC, agar dilution; assay type: cell-based; settings: Streptococcus pyogenes, AVHAH883, 18 h
[3] = test system: Ps. aeruginosa ATCC 27853; assay: MIC, agar dilution; assay type: cell-based; settings: Pseudomonas aeruginosa, ATCC27853, 18 h
E. coli UBMS 88-1 Tet B = assay: microbe, parasite or virus in culture; assay type: cell-based; settings: Escherichia coli, UBMS881TETB, 18 h
S. aureus SMITH (MP) = assay: MIC, agar dilution; assay type: cell-based; settings: Staphylococcus aureus, 18 h
E. coli ATCC 25922 = assay: MIC, agar dilution; assay type: cell-based; settings: Escherichia coli, ATCC25922, 18 h
Enterococcus 12201 = assay: MIC, agar dilution; assay type: cell-based; settings: Enterococcus, 12201, 18 h
E. coli UBMS 90-4 Tet M = assay: microbe, parasite or virus in culture; assay type: cell-based; settings: Escherichia coli, UBMS904TETM, 18 h
S. aureus UBMS 88-4 = assay: MIC, agar dilution; assay type: cell-based; settings: Staphylococcus aureus, UBMS884, 18 h
[4] = test system: E. coli MC 4100 TNIOC Tet B; assay: microbe, parasite or virus in culture; assay type: cell-based; settings: Escherichia coli, 18 h
E. faecalis ATCC 29212 = assay: MIC, agar dilution; assay type: cell-based; settings: Enterococcus faecalis, ATCC29212, 18 h
S. aureus IVES 2943 = assay: MIC, agar dilution; assay type: cell-based; settings: Staphylococcus aureus, IVES2943, 18 h
E. coli J3272 Tet D = assay: microbe, parasite or virus in culture; assay type: cell-based; settings: Escherichia coli, J3272TETD, 18 h
E. coli BAJ9003 IMP MUT = assay: microbe, parasite or virus in culture; assay type: cell-based; settings: Escherichia coli, BAJ9003IMPMUT, 18 h
S. aureus ATCC 29213 = assay: MIC, agar dilution; assay type: cell-based; settings: Staphylococcus aureus, ATCC29213, 18 h, S. aureus ATCC 29213
S. marcescens FPOR 8733 = assay: MIC, agar dilution; assay type: cell-based; settings: Serratia marcescens, FPOR8733, 18 h
E. coli UBMS 90-5 = assay: microbe, parasite or virus in culture; assay type: cell-based; settings: Escherichia coli, UBMS905, 18 h, E. coli UBMS 90-5; read-out: MIC
[5] = test system: E. coli UBMS 89-2 Tet sens.; assay: MIC, agar dilution; assay type: cell-based; settings: Escherichia coli, 18 h
[6] = test system: S. aureus UBMS 88-5 Tet M; assay: microbe, parasite or virus in culture; assay type: cell-based; settings: Staphylococcus aureus, UBMS885TETM, 18 h
[7] = test system: X. maltophilia NEMC 87210; assay: MIC, agar dilution; assay type: cell-based; settings: Stenotrophomonas maltophilia, NEMC87210, 18 h
[8] = test system: S. aureus UBMS 90-1 Tet M; assay: microbe, parasite or virus in culture; assay type: cell-based; settings: Staphylococcus aureus, UBMS901TETM, 18 h
[9] = test system: E. coli MC 4100 Tet sens.; assay: MIC, agar dilution; assay type: cell-based; settings: Escherichia coli, 18 h
E. coli UBMS 89-1 Tet M = assay: microbe, parasite or virus in culture; assay type: cell-based; settings: Escherichia coli, UBMS891TETM, 18 h
E. coli #311 (MP) = assay: MIC, agar dilution; assay type: cell-based; settings: Escherichia coli, 18 h
[10] = test system: S. aureus UBMS 90-2 Tet M; assay: microbe, parasite or virus in culture; assay type: cell-based; settings: Staphylococcus aureus, UBMS902TETM, 18 h
S. aureus ROSE (MP) = assay: MIC, agar dilution; assay type: cell-based; settings: Staphylococcus aureus, 18 h
S. aureus IVES 1983 = assay: MIC, agar dilution; assay type: cell-based; settings: Staphylococcus aureus, IVES1983, 18 h
S. aureus UBMS 90-3 = assay: MIC, agar dilution; assay type: cell-based; settings: Staphylococcus aureus, UBMS903, 18 h
E. coli J2175 = assay: MIC, agar dilution; assay type: cell-based; settings: Escherichia coli, 18 h, read-out: MIC
[11] = test system: Staphylococcus aureus strain Smith (tetracycline sensitive); assay: Acute lethal infection in mice, S. aureus Smith; assay type: in vivo
E. coli J3272 Tet sens = assay: MIC, agar dilution; assay type: cell-based; settings: Escherichia coli, J3272TETSENS, 18 h
[12] = Ps. aeruginosa ATCC 27853, read-out: MIC

Structure (SMILES)	MIC (E. coli J3272 Tet C) [µg/mL]	MIC (E. coli PRP1 Tet A) [µg/mL]	MIC [1] [µg/mL]	MIC [2] [µg/mL]	MIC (E. coli UBMS 88-1 Tet B) [µg/mL]	MIC (S. aureus SMITH (MP)) [µg/mL]	MIC (E. coli ATCC 25922) [µg/mL]	MIC (E. coli UBMS 90-4 Tet M) [µg/mL]	MIC [4] [µg/mL]	MIC (E. coli J3272 Tet D) [µg/mL]	MIC (E. coli BAJ9003 IMP MUT) [µg/mL]	MIC (S. aureus ATCC 29213) [µg/mL]	MIC (E. coli UBMS 90-5) [µg/mL]	MIC [5] [µg/mL]	MIC [6] [µg/mL]	MIC [7] [µg/mL]	MIC [8] [µg/mL]	MIC (E. coli UBMS 89-1 Tet M) [µg/mL]	MIC (E. coli #311 (MP)) [µg/mL]	MIC [10] [µg/mL]	also measured
CC(C(=O)Nc1ccc2c(c1O)C(=O)C1=C(O)[C@]3(O)C(=O)C(C(N)=O)=C(O)[C@@H](N(C)C)C3CC1C2)N1CCCC1 (some centres unmarked) [P]	1 (≈ 1.8 µM)	2 (≈ 3.61 µM)	1 (≈ 1.8 µM)	4 (≈ 7.21 µM)	2 (≈ 3.61 µM)	0.5 (≈ 0.902 µM)	1 (≈ 1.8 µM)	1 (≈ 1.8 µM)	2 (≈ 3.61 µM)	0.5 (≈ 0.902 µM)	0.25 (≈ 0.451 µM)	0.5 (≈ 0.902 µM)	0.5 (≈ 0.902 µM)	1 (≈ 1.8 µM)	0.5 (≈ 0.902 µM)	4 (≈ 7.21 µM)	0.5 (≈ 0.902 µM)	0.5 (≈ 0.902 µM)	1 (≈ 1.8 µM)	0.5 (≈ 0.902 µM)	MIC (S. aureus NEMC 8769): 0.5 µg/mL (≈ 0.902 µM); MIC [3, 12]: > 32 µg/mL; MIC (Enterococcus 12201; Enterococcus 12201, read-out: MIC): 0.25 µg/mL (≈ 0.451 µM); MIC (S. aureus UBMS 88-4): 0.5 µg/mL (≈ 0.902 µM); MIC (E. faecalis ATCC 29212; E. faecalis ATCC 29212, read-out: MIC): 0.25 µg/mL (≈ 0.451 µM); MIC (S. aureus IVES 2943; S. aureus IVES 2943, read-out: MIC): 2 µg/mL (≈ 3.61 µM); MIC (S. marcescens FPOR 8733): 16 µg/mL (≈ 28.8 µM); MIC [9]: 0.25 µg/mL (≈ 0.451 µM); MIC (S. aureus ROSE (MP); read-out: MIC): 8 µg/mL (≈ 14.4 µM); MIC (S. aureus IVES 1983): 1 µg/mL (≈ 1.8 µM); MIC (S. aureus UBMS 90-3): 0.25 µg/mL (≈ 0.451 µM); MIC (E. coli J2175): 1 µg/mL (≈ 1.8 µM)
CN(C)[C@@H]1C(O)=C(C(N)=O)C(=O)[C@@]2(O)C(O)=C3C(=O)c4c(ccc(NC(=O)CNCC5CC5)c4O)CC3CC12 (stereo partly drawn) [Q, [4S-(4alpha,12aalpha)]-9-[[[(Cyclopropylmethyl)amino]acetyl]amino]-4-(dimethylamino)-1,4,4a,5,5a,6,11,12a-octahydro-3,10,12,12a-tetrahydroxy-1,11-dioxo-2-naphthacenecarboxamide dihydrochloride]	0.5	2	8	4	0.5	0.5	0.5	0.25	1	0.25	0.25	0.5	0.5	1	0.5	4	0.5	0.5	1	0.5	MIC (S. aureus NEMC 8769): 0.5 µg/mL; MIC [3]: 16 µg/mL; MIC (Enterococcus 12201): 0.5 µg/mL; MIC (S. aureus UBMS 88-4): 0.5 µg/mL; MIC (E. faecalis ATCC 29212): 0.25 µg/mL; MIC (S. aureus IVES 2943): 8 µg/mL; MIC (S. marcescens FPOR 8733; read-out: MIC): 8 µg/mL; ED50 ([11]; Staphylococcus aureus, po, 168 h, mice, S. aureus Smith (Sens), Oral, 7 day survival, read-out: ED50): > 16 mg/kg; in vivo activity (in words) ([11]; tested intravenously against the minocycline sensitive organism S. aureus Smith): very good in vivo activity; MIC [9]: 0.25 µg/mL; MIC (S. aureus ROSE (MP)): 16 µg/mL; MIC (S. aureus IVES 1983): 4 µg/mL; MIC (S. aureus UBMS 90-3): 0.5 µg/mL; MIC (E. coli J2175): 1 µg/mL
CN(C)[C@@H]1C(O)=C(C(N)=O)C(=O)[C@@]2(O)C(O)=C3C(=O)c4c(ccc(NC(=O)CBr)c4O)CC3CC12 (stereo partly drawn) [R, [4S-(4alpha,12aalpha)]-9-((Bromoacetyl)amino]-4-(dimethylamino)-1,4,4a,5,5a,6,11,12a-octahydro-3,10,12,12a-tetrahydroxy-1,11-dioxo-2-naphthacenecarboxamide monohydrochloride]	> 32	> 32	8	8	> 32	1	16	32	> 32	> 32	1	1	32	32	2	16	1	8	16	2	MIC (S. aureus NEMC 8769; read-out: MIC): 0.25 µg/mL; MIC [3, 12]: > 32 µg/mL; MIC (Enterococcus 12201): 4 µg/mL; MIC (S. aureus UBMS 88-4; S. aureus UBMS 88-4, read-out: MIC): 0.5 µg/mL; MIC (E. faecalis ATCC 29212): 2 µg/mL; MIC (S. aureus IVES 2943): 16 µg/mL; MIC (S. marcescens FPOR 8733): > 32 µg/mL; MIC (E. coli J3272 Tet sens): 32 µg/mL; MIC (S. aureus ROSE (MP)): 16 µg/mL; MIC (S. aureus IVES 1983): 16 µg/mL; MIC (S. aureus UBMS 90-3): 1 µg/mL; MIC (E. coli J2175): 32 µg/mL
